# Data as given in patent US12077503B2, “Substituted cyclic amides and their use as herbicides” (FMC CORPORATION, priority 2015, dated 2024).
# Key:
# Assay type in all cases: in vivo
# [1] = system: ragweed (common ragweed, Ambrosia elatior); test: Test A preemergence; details: Ambrosia artemisiifolia, pre-emergence, 240 h, preemergence, 0 to 100 scale where 0 is no effect and 100 is complete control, read-out: Ragweed plant response rating; for pest or weed control at 125 g/ha: 125 g ai/ha, visual injury rating, approximately 10 d; for pest or weed control at 500 g/ha: 500 g ai/ha
# Procedure, shortened: (§1)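 Visual injury, scored on a 0–100 scale relative to untreated controls, was recorded about 10 d after application. Treatments were a preemergence soil spray over planted seeds or a postemergence spray on plants at the one- to two-leaf stage, 2 to 10 cm tall, all in loam soil–sand blend in the greenhouse.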
# [2] = system: barnyardgrass (Echinochloa crus-galli); test: Test A preemergence; details: Echinochloa crus-galli, pre-emergence, 240 h, preemergence, 0 to 100 scale where 0 is no effect and 100 is complete control, read-out: Barnyardgrass plant response rating; for pest or weed control at 125 g/ha: 125 g ai/ha, visual injury rating, approximately 10 d; for pest or weed control at 500 g/ha: 500 g ai/ha
# Procedure, shortened: as §1
# [3] = system: pigweed (Amaranthus retroflexus); test: Test A preemergence; details: Amaranthus retroflexus, pre-emergence, 240 h, preemergence, 0 to 100 scale where 0 is no effect and 100 is complete control, read-out: Pigweed plant response rating; for pest or weed control at 125 g/ha: 125 g ai/ha, visual injury rating, approximately 10 d; for pest or weed control at 500 g/ha: 500 g ai/ha
# [4] = system: giant foxtail (Setaria faberii); test: Test A preemergence; details: Setaria faberi, pre-emergence, 240 h, preemergence, 0 to 100 scale where 0 is no effect and 100 is complete control, read-out: Foxtail, Giant plant response rating; for pest or weed control at 125 g/ha: 125 g ai/ha, visual injury rating, approximately 10 d; for pest or weed control at 500 g/ha: 500 g ai/ha
# Procedure, shortened: as §1
# Kochia (Kochia scoparia) [5] = test: Test A preemergence; details: Bassia scoparia, pre-emergence, 240 h, preemergence, 0 to 100 scale where 0 is no effect and 100 is complete control, read-out: Kochia plant response rating; for pest or weed control at 125 g/ha: 125 g ai/ha, visual injury rating, approximately 10 d; for pest or weed control at 500 g/ha: 500 g ai/ha
# Procedure, shortened: as §1
# [6] = system: ryegrass, Italian (Italian ryegrass, Lolium multiflorum); test: Test A preemergence; details: Lolium multiflorum, pre-emergence, 240 h, preemergence, 0 to 100 scale where 0 is no effect and 100 is complete control, read-out: Ryegrass, Italian plant response rating; for pest or weed control at 125 g/ha: 125 g ai/ha, visual injury rating, approximately 10 d; for pest or weed control at 500 g/ha: 500 g ai/ha
# Procedure, shortened: as §1
# [7] = system: blackgrass (Alopecurus myosuroides); test: Test A postemergence; details: Alopecurus myosuroides, post-emergence, 240 h, Postemergence; for pest or weed control at 125 g/ha: 125 g ai/ha, visual rating about 10 d after treatment, read-out: Blackgrass plant response rating (0 to 100 scale); for pest or weed control at 500 g/ha: 500 g ai/ha, visual injury, 0 to 100 scale (0 no effect, 100 complete control), approx. 10 d, read-out: Plant response rating, Blackgrass
# Procedure, shortened: as §1
# [8] = system: ragweed (common ragweed, Ambrosia elatior); test: Test A postemergence; details: Ambrosia artemisiifolia, post-emergence, 240 h, Postemergence; for pest or weed control at 125 g/ha: 125 g ai/ha, visual rating about 10 d after treatment, read-out: Ragweed plant response rating (0 to 100 scale); for pest or weed control at 500 g/ha: 500 g ai/ha, visual injury, 0 to 100 scale (0 no effect, 100 complete control), approx. 10 d, read-out: Plant response rating, Ragweed
# Procedure, shortened: as §1
# [9] = system: Galium (catchweed bedstraw, Galium aparine); test: Test A postemergence; details: Galium, post-emergence, 240 h, Postemergence; for pest or weed control at 125 g/ha: 125 g ai/ha, visual rating about 10 d after treatment, read-out: Galium plant response rating (0 to 100 scale); for pest or weed control at 500 g/ha: 500 g ai/ha, visual injury, 0 to 100 scale (0 no effect, 100 complete control), approx. 10 d, read-out: Plant response rating, Galium
# Procedure, shortened: as §1
# [10] = system: barnyardgrass (Echinochloa crus-galli); test: Test A postemergence; details: Echinochloa crus-galli, post-emergence, 240 h, Postemergence; for pest or weed control at 125 g/ha: 125 g ai/ha, visual rating about 10 d after treatment, read-out: Barnyardgrass plant response rating (0 to 100 scale, 0 no effect, 100 complete control); for pest or weed control at 500 g/ha: 500 g ai/ha, visual injury, 0 to 100 scale (0 no effect, 100 complete control), approx. 10 d, read-out: Plant response rating, Barnyardgrass
# Procedure, shortened: as §1
# [11] = system: pigweed (Amaranthus retroflexus); test: Test A postemergence; details: Amaranthus retroflexus, post-emergence, 240 h, Postemergence; for pest or weed control at 125 g/ha: 125 g ai/ha, visual rating about 10 d after treatment, read-out: Pigweed plant response rating (0 to 100 scale); for pest or weed control at 500 g/ha: 500 g ai/ha, visual injury, 0 to 100 scale (0 no effect, 100 complete control), approx. 10 d, read-out: Plant response rating, Pigweed
# Procedure, shortened: as §1
# [12] = system: giant foxtail (Setaria faberii); test: Test A postemergence; details: Setaria faberi, post-emergence, 240 h, Postemergence; for pest or weed control at 125 g/ha: 125 g ai/ha, visual rating about 10 d after treatment, read-out: Foxtail, Giant plant response rating (0 to 100 scale); for pest or weed control at 500 g/ha: 500 g ai/ha, visual injury, 0 to 100 scale (0 no effect, 100 complete control), approx. 10 d, read-out: Plant response rating, Foxtail, Giant
# Procedure, shortened: as §1
# corn (Zea mays) = test: Test A postemergence; details: Zea mays, post-emergence, 240 h, Postemergence; for plant injury at 125 g/ha: 125 g ai/ha, visual rating about 10 d after treatment, read-out: Corn plant response rating (0 to 100 scale); for Corn plant response rating (crop injury, 0 = no effect, 100 = complete kill) at 500 g/ha: 500 g ai/ha, visual injury, 0 to 100 scale (0 no effect, 100 complete control), approx. 10 d
# Procedure, shortened: as §1
# Kochia (Kochia scoparia) [13] = test: Test A postemergence; details: Bassia scoparia, post-emergence, 240 h, Postemergence; for pest or weed control at 125 g/ha: 125 g ai/ha, visual rating about 10 d after treatment, read-out: Kochia plant response rating (0 to 100 scale); for pest or weed control at 500 g/ha: 500 g ai/ha, visual injury, 0 to 100 scale (0 no effect, 100 complete control), approx. 10 d, read-out: Plant response rating, Kochia
# Procedure, shortened: as §1
# [14] = system: ryegrass, Italian (Italian ryegrass, Lolium multiflorum); test: Test A postemergence; details: Lolium multiflorum, post-emergence, 240 h, Postemergence; for pest or weed control at 125 g/ha: 125 g ai/ha, visual rating about 10 d after treatment, read-out: Ryegrass, Italian plant response rating (0 to 100 scale); for pest or weed control at 500 g/ha: 500 g ai/ha, visual injury, 0 to 100 scale (0 no effect, 100 complete control), approx. 10 d, read-out: Plant response rating, Ryegrass, Italian
# Procedure, shortened: as §1
SMILES,pest or weed control at 125 g/ha [1],pest or weed control at 500 g/ha [1],pest or weed control at 125 g/ha [2],pest or weed control at 500 g/ha [2],pest or weed control at 125 g/ha [3],pest or weed control at 500 g/ha [3],pest or weed control at 125 g/ha [4],pest or weed control at 500 g/ha [4],pest or weed control at 125 g/ha (Kochia (Kochia scoparia) [5]),pest or weed control at 500 g/ha (Kochia (Kochia scoparia) [5]),pest or weed control at 125 g/ha [6],pest or weed control at 500 g/ha [6],pest or weed control at 125 g/ha [7],pest or weed control at 500 g/ha [7],pest or weed control at 125 g/ha [8],pest or weed control at 500 g/ha [8],pest or weed control at 125 g/ha [9],pest or weed control at 500 g/ha [9],pest or weed control at 125 g/ha [10],pest or weed control at 500 g/ha [10],other results
COc1cc([C@H]2CN(C)C(=O)[C@@H]2C(=O)Nc2ccccc2F)ccc1F [Compound 1298],0%,20%,80%,90%,0%,0%,90%,90%,0%,80%,0%,0%,0%,0%,0%,0%,0%,20%,80%,80%,"pest or weed control at 125 g/ha [11]: 0%; pest or weed control at 500 g/ha [11]: 0%; pest or weed control at 125 g/ha [12]: 70%; pest or weed control at 500 g/ha [12]: 90%; plant injury at 125 g/ha (corn (Zea mays)): 0%; Corn plant response rating (crop injury, 0 = no effect, 100 = complete kill) at 500 g/ha (corn (Zea mays)): 0%; pest or weed control at 125 g/ha (Kochia (Kochia scoparia) [13]): 0%; pest or weed control at 500 g/ha (Kochia (Kochia scoparia) [13]): 0%; pest or weed control at 125 g/ha [14]: 0%; pest or weed control at 500 g/ha [14]: 0%"
COc1cc([C@H]2CN(C)C(=O)[C@@H]2C(=O)Nc2cccc(F)c2C)ccc1F [Compound 1300],0%,80%,90%,90%,0%,40%,90%,90%,0%,60%,0%,60%,30%,50%,0%,0%,20%,40%,80%,90%,"pest or weed control at 125 g/ha [11]: 0%; pest or weed control at 500 g/ha [11]: 0%; pest or weed control at 125 g/ha [12]: 80%; pest or weed control at 500 g/ha [12]: 90%; plant injury at 125 g/ha (corn (Zea mays)): 20%; Corn plant response rating (crop injury, 0 = no effect, 100 = complete kill) at 500 g/ha (corn (Zea mays)): 60%; pest or weed control at 125 g/ha (Kochia (Kochia scoparia) [13]): 0%; pest or weed control at 500 g/ha (Kochia (Kochia scoparia) [13]): 0%; pest or weed control at 125 g/ha [14]: 0%; pest or weed control at 500 g/ha [14]: 30%"
